From PMC12051620, “Molecular basis underlying the specificity of an antagonist AA92593 for mammalian melanopsins” (The Journal of Biological Chemistry, 2025)

Tests used:
[1] = test system: mouse melanopsin L207^5.42F mutant; test: GsX GloSensor assay with Gsα/q11; format: cell-based; conditions: 16.7 μM AA92593, COS-1 cells
Description: (§1) Next, we attempted to render human melanopsin more ineffective to AA92593 by combining W189^ECL2F with F94^2.61C/S188^ECL2T/S269^6.52A. […] We note that the loss of sensitivity for AA92593 by the quadruple substitutions was not due to the substitutions-induced changes in absorption spectrum or localization in COS-1 cells. […] In the GloSensor assay, a small difference in G protein activation between the triple and quadruple mutants in the presence of AA92593 would be amplified through the second messenger signaling cascade.
(§2) For GloSensor assay, opsins, GloSensor assay sensor (coded by pGlo-22F), and NanoBiT-tagged G proteins were transiently expressed in COS-1 cells (kindly provided from Dr David Farrens, Oregon Health and Science University) using PEI as described previously ([24], [52]). For the GsX GloSensor assay ([12], [13]), each well of a 96-well assay plate (Corning) was transfected with 50 ng opsin plasmid, 16.7 ng G protein plasmid, 50 ng pGlo-22F plasmid (Promega), and 500 ng PEI in 25 μl Opti-mem and 75 μl Dulbecco's modified Eagle's medium (D-MEM). […] For GFP-fluorescence microscopy, a 35-mm cell culture dish (IWAKI) was transfected with 2 μg melanopsin-GFP plasmid and 8 μg PEI in 400 μl Opti-mem and 1.2 ml D-MEM. […]

[2] = target: T1, human melanopsin F94^2.61C/S188^ECL2T/W189^ECL2F/S269^6.52A mutant (Homo sapiens, UniProt Q9UHM6, F127C/S222T/S313A/W223F); test: GsX GloSensor assay with Gsα/q11; format: cell-based; conditions: up to 16.7 μM AA92593, COS-1 cells
T1 construct: expressed in transfected cells; host or cells: COS-1
T1 sequence (Q9UHM6 1-384 F127C/S222T/W223F/S313A): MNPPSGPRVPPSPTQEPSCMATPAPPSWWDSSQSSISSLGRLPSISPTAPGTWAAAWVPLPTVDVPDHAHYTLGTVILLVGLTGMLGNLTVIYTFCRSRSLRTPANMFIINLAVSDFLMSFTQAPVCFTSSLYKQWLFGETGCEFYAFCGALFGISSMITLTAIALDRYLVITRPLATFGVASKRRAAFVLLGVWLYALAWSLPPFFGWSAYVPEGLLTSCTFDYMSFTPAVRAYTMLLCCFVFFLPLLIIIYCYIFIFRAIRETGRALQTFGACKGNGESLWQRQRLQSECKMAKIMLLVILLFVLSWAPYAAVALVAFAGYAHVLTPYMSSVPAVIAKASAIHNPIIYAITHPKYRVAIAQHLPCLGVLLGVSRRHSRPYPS
Description: as §1, §2

SMILES: COc1ccc(S(=O)(=O)N2CCCCC2)cc1C [AA92593]
- increased susceptibility to the antagonist vs WT [1]: ~26%
- sensitivity to AA92593 [2]: almost completely lost sensitivity
